The values that follow come from a melting point compilation (Tetko et al.; mined from patent text by program, amines drawn as free bases though some values may be those of a salt).

Structures are written as SMILES. Some results are limits rather than exact numbers.

Regarding `CC(=O)N(C1=C(NC2CC2)C(=O)c2c(cnn2C)C1=O)C1CC1`, the melting point fell in the range of 75 to 78 °C.

`CC(=O)OC1=CCC2C3CC=C4CC(OC(C)=O)CCC4(C)C3CCC12C` (centres undefined) returned a melting point of 144 to 150 °C.

Take `CCOC(=O)c1ncn2c(-c3cccc(C(F)(F)F)c3)ccnc12`: the melting point was in the range of 232 to 234 °C.

`CC(=O)OCC(=O)C1=CCC2C3CCC4=CC(=O)C=CC4(C)C3(F)C(O)CC12C` (centres undefined) showed a melting point of 223 to 225 °C.

For `Cc1oc(-c2ccccc2)nc1CCOc1ccc(CCCBr)cc1`, the melting point lay within 78 to 79 °C.

The compound `COc1cc(Cl)cnc1OCC#Cc1cccc(OCC#N)n1` had a melting point of 118 °C.

Compound `CCOC(=O)c1cccc(-c2nc(-c3cc(Cl)sc3Cl)cs2)c1` showed a melting point of 125 to 126 °C.

In turn, `Cc1c(CC(=O)O)oc2ccc(-c3ccccc3)cc12` displayed a melting point of 173 to 174 °C.

`COC(=O)c1ccccc1NC(C#N)c1ccc(Br)cc1` (centres undefined) returned a melting point of 112 °C.

Compound `COc1ccc(Nc2nc3ccccc3c3[nH]c(C4CCCC4)nc23)cc1` showed a melting point of 106 to 107 °C.

For `N#CCNC(=O)Cc1ccccc1`, the melting point lay within 87 to 91 °C.

`CN(C)CCc1cccc(OCCCCN2C(=O)c3ccccc3C2=O)c1` came in with a melting point of 52 to 53 °C.

Consider `CS(=O)(=O)Nc1cc2oc(C(=O)O)cc(=O)c2cc1Oc1ccccc1`, for which the melting point was more than 250 °C.

Compound `CN1C(=O)SCC1C(=O)NCCO[N+](=O)[O-]` (centres undefined) showed a melting point of 105 to 106 °C.

As to `CC(C)C(=O)C(C#N)=C(O)c1ccc(C(F)(F)F)cc1[N+](=O)[O-]`, the melting point was 83 to 85 °C.

`O=C1C(=O)c2ccc(-c3ccccc3)cc2C2=C1SCC1(CCNCC1)O2` gave a melting point of 83 to 87 °C.

On to `CC(=O)N1CCC(n2ccc(-c3ccc(F)cc3)c2-c2ccncc2)CC1`, for which the melting point lay within 223 to 224 °C.

With `N[C@@H](Cc1ccc(C(F)(F)F)cc1)[C@H](O)c1ccc(Cl)nc1` (racemic), the melting point lay within 103 to 104 °C.

Compound `CNc1nc(-c2cccc(NC(=O)c3ccc(OC)cc3)c2)c2cc(OC)c(OC)cc2n1` registered a melting point of 219 to 221 °C.

Regarding `CNCCc1ccc(-c2ccc(OC(C)C(O)CCc3cccnc3)cc2)cc1` (centres undefined), the melting point lay in the range of 113 to 114 °C.

In turn, `Cc1ccccc1Cn1c(=O)c2c(N3CCN(C)CC3)cc(Cl)cc2n(Cc2ccccc2)c1=O` yielded a melting point of 92 to 95 °C.

`CC(=O)SCC(Cc1ccccc1)C(=O)Nc1ccccc1C(=O)O` (centres undefined): the melting point was 121 to 122 °C.

Regarding `COc1ccc(Cn2c(=O)c3c(c4ccccc42)OC(C)(C)[C@@H](O)[C@@H]3NC(=O)CCCCl)cc1` (relative stereo), the melting point is 218 to 219 °C.

With `C[C@@H](C(N)=O)c1ccc(NS(=O)(=O)c2cccs2)cc1`, the melting point was in the range of 58 to 60 °C.

The compound `COc1ccc2[nH]c(C)c(CC(N)=O)c2c1` returned a melting point of 146 to 148 °C.

The compound `NC(=O)C(CCCCCCCCCCCCC(C(N)=O)C1CC1)C1CC1` (centres undefined) yielded a melting point of 157 to 158 °C.

For `Cc1ccc(S(=O)(=O)OC[C@H]2CC[C@@H](COS(=O)(=O)c3ccc(C)cc3)O2)cc1`, the melting point lay in the range of 125 to 126 °C.

As for `NC(=NO)c1ncn2c1nc(N1CCOCC1)c1ccccc12`, the melting point lay within 212 to 213 °C.

`O=C(O)c1nn(-c2ccc(Cl)cc2Cl)c2c1CCc1sc(Br)cc1-2` gave a melting point of 235 to 237 °C.

For the compound `COc1c(C2CC2c2ccc(NS(C)(=O)=O)cc2)cc(N2CCC(=O)NC2=O)cc1C(C)(C)C` (centres undefined), the melting point lay within 265 to 266 °C.

`CCOC1=CC2=CC[C@@H]3[C@H](CC[C@]4(CC)C(=O)C=C[C@@H]34)[C@H]2CC1` had a melting point of 137 °C.

`O=[N+]([O-])c1[nH]c(-c2c(Cl)cc(C(F)(F)F)cc2Cl)nc1C(F)(F)F`: the melting point lay within 244 to 252 °C.

As to `CCC1(C)Cc2cc(OC)c(Cl)c(Cl)c2C1=O` (centres undefined), the melting point was 121 °C.

As to `O=C(O)c1ccccc1C(=O)NNC(=S)Nc1ccccc1`, the melting point was 149 to 151 °C.

In turn, `CCOC(=O)C(NC(C)=O)(C(=O)OCC)c1ccc([N+](=O)[O-])cn1` gave a melting point of 82 to 83 °C.

Compound `Cc1cc(C)c2c(=O)[nH]c(-c3cc(C)c(OCCO)c(C)c3)nc2c1` showed a melting point of 260 to 261 °C.

The compound `CCC(=CC(CNC(=O)c1ccncn1)=NO)C(C)[N+](=O)[O-]` (centres undefined) displayed a melting point of 150 to 152 °C.

In turn, `N#CN1C(=O)c2ccccc2C1=O` had a melting point of 189 to 191 °C.

As to `COc1ncc(C(F)(F)F)cc1-c1cccn2nc(Nc3ccc(C4CCN(C(=O)OC(C)(C)C)CC4)cc3)nc12`, the melting point was 142 to 144 °C.

Compound `COc1ccc(C(=O)c2ccc(OCc3nc(-c4ccccc4)oc3C)cc2)c(OC2(C(=O)O)CCC2)c1` had a melting point of 199 to 201 °C.

Consider `COc1ccccc1N1CCN(CCCNC(=O)c2cccc3c(=O)c(O)c(-c4ccccc4)oc23)CC1`, for which the melting point lay in the range of 196 to 199 °C.

Compound `NC(c1ccccc1)c1nc2ccccc2s1` (centres undefined) showed a melting point of 68 to 70 °C.

`CC(C)Nc1nc(S(C)(=O)=O)nc(Cl)c1-c1c(F)cccc1Cl` registered a melting point of 145 to 149 °C.

For the compound `C=CCN1CCN2c3ccccc3Cn3cccc3C2C1` (centres undefined), the melting point lay in the range of 130 to 132 °C.

Take `O=C(Cn1nnnc1-c1ccc2ccccc2c1)OCCO`: the melting point lay within 64 to 66 °C.

For the compound `CC(C)(C)OC(=O)NCC(=O)Oc1cc2c(c3ccccc13)Nc1ccccc1S2`, the melting point was determined as 175 °C.

`COc1ccc2sc3ccccc3c2c1` came in with a melting point of 54 to 55 °C.

Take `c1ccc2c(N3CCNCC3)n[nH]c2c1`: the melting point lay in the range of 139 to 150 °C.

With `O=C(Nc1ccc(CNc2nc(NC3CC3)nc3ccccc23)cc1)c1ccc(F)cc1`, the melting point was determined as 189 °C.

As to `Cc1cccc(C)c1NCCNCC(O)COc1ccc(F)cc1` (centres undefined), the melting point lay in the range of 105 to 106 °C.

In turn, `CC(C)(C)OC(=O)N1CCn2c(Cl)cc(C(N)=O)c2C1` displayed a melting point of 223 to 225 °C.

Turning to `CCN1C(C(=O)OC)=C(O)c2ccc3ccccc3c2S1(=O)=O`, the melting point worked out at 179 °C.

`Cc1cc(-c2ncn3c(C(F)(F)F)cc(-c4ccc(Br)cc4)nc23)ccn1` yielded a melting point of 249 °C.

In the case of `N#Cc1nn(-c2c(Cl)cc(SC(F)(F)F)cc2Cl)c(N)c1I`, the melting point lay in the range of 172 to 174 °C.

In turn, `COC(=O)COc1ccc(I)cc1` had a melting point of 69 to 70 °C.

`O=c1[nH]c2cc(Cl)c(Cl)cc2c(O)c1-c1ccccc1` returned a melting point of 347 to 349 °C.

`CCCN(CC)C(C)CN1CCc2c(c(=O)oc3cc(OC)c(OC)cc23)C1` (centres undefined) registered a melting point of 93 to 96 °C.

As for `COc1ccc(-c2cc(-c3c(-c4ccccn4)nc4ccccn34)ccn2)cc1`, the melting point was found to be 222 °C.

Take `Nc1cc(Br)cc(OCCF)c1`: the melting point lay in the range of 48.5 to 50 °C.

In the case of `Nc1nc(NCCC23CC4CC(CC(C4)C2)C3)nc2c1ncn2C1OC(CO)C(O)C1O` (centres undefined), the melting point was in the range of 145 to 147 °C.

`Cc1nc(N2CCN(CC3CC3(F)F)C2=O)sc1C(=O)NCc1ncco1` (centres undefined) had a melting point of 156 to 158 °C.

As to `Cn1nnnc1CC(=O)c1ccccc1N`, the melting point fell in the range of 128 to 132 °C.

With `Cc1ccc2cc(C)[nH]c2c1`, the melting point was 74 to 76 °C.

Turning to `CC(=O)Nc1ccc(C(=O)OCC=CC(C)Oc2ccc(Oc3cnc4cc(Cl)ccc4n3)cc2)cc1` (centres undefined), the melting point lay in the range of 62 to 68 °C.

`C[C@H](OC(c1ccccc1)(c1ccccc1)c1ccccc1)C(=O)O` had a melting point of 100 to 106 °C.

For `CC(CNCc1ccccc1O)NCc1ccccc1O` (centres undefined), the melting point was 57 to 58 °C.

The compound `O=c1c(-c2ccc(Cl)cc2)c(CCC2CC2)nc2ccccn12` showed a melting point of 126 to 127 °C.

For the compound `O=C1CCC(c2ccc(C3CCCC3)cc2)=NN1`, the melting point was in the range of 191 to 192 °C.

With `CC(C)(C)OC(=O)N1C[C@@H]([C@H](O)CO)CC1=O`, the melting point was in the range of 92 to 94 °C.

As for `O=C1NC(=O)C(c2ccccc2)=C1Nc1ccc(OC(F)(F)F)cc1`, the melting point came to 206 °C.

Take `CCOC(=O)C=Cc1cc(OCc2ccccc2)ccc1-c1ccc(-c2cccc(C(F)(F)F)c2)c(C=O)c1`: the melting point is 116 to 118 °C.

Consider `COc1ccc2c(c1)CCN(C(C)=O)CC2`, for which the melting point fell in the range of 89 to 90 °C.

Consider `CCN(C(=O)NS(=O)(=O)c1ccccc1)c1ccc(Cl)cc1`, for which the melting point lay in the range of 145 to 146 °C.

Compound `Cc1nc(C)c(C(C)(O)c2cocc2Br)o1` (centres undefined) yielded a melting point of 124 to 125 °C.

In turn, `CC(=O)SCC(Cc1ccccc1)C(=O)Nc1ccc(C(=O)O)c(O)c1` (centres undefined) gave a melting point of 141 to 142 °C.

On to `CNC(=O)c1cc2ccccc2c(-c2cccc(I)c2)n1`, for which the melting point was in the range of 172 to 174 °C.

Take `CSc1nc(=O)[nH]c(C)c1Cl`: the melting point was found to be 268 °C.

Regarding `CCc1nc(C)c(CCC(=O)N(CC)CC)c(=O)n1Cc1ccc(-c2ccccc2-c2nnn[nH]2)cc1`, the melting point was in the range of 100 to 105 °C.

With `COc1ccc(C2CC[N+]([O-])(CCC3CCOc4ccccc43)CC2)cc1OC` (centres undefined), the melting point amounted to 97 °C.

Turning to `N#Cc1ccc(Cc2nc[nH]n2)cc1`, the melting point was 151 to 153 °C.

Consider `O=C(O)C1Cc2c([nH]c3ccccc23)CN1C(=S)SCC=Cc1ccccc1` (centres undefined), for which the melting point was 200 to 202 °C.

`COC(=O)Oc1cc2c(c(O)c1C)C(=O)c1c(OC)c3c(c(O)c1C2=O)-c1c(cc2cnn(-c4ccccc4)c(=O)c2c1O)CC3`: the melting point is more than 350 °C.

`CN1C2=C(C(=O)OC2)C(c2ccncc2)c2cc3c(cc21)OCO3` (centres undefined): the melting point worked out at 255 °C.

Consider `Cc1cc(C)cc(NC(=O)NC2CC2)c1`, for which the melting point amounted to 169 °C.

With `CCSc1nc2c(C)sc(C(=O)O)c2n1Cc1ccc(-c2ccccc2-c2n[nH]c(=O)n2C)cc1`, the melting point is 181 to 182 °C.

As to `COCCN1CCN(CCc2ccc(Nc3ncc4c(n3)-c3ccccc3C(c3ccccc3)C4)cc2)CC1` (centres undefined), the melting point lay within 52 to 54 °C.

`COc1cc(Nc2c(C#N)cnc3cc(-c4ccc(CO)cc4)ccc23)c(Cl)cc1Cl`: the melting point lay within 264 to 267 °C.

As for `CN1CCN(Cc2nc3ccccc3[nH]2)CC1`, the melting point fell in the range of 179 to 183 °C.

`CCCCCCc1nc(N)n2nc(-c3ccco3)nc2n1` came in with a melting point of 131 to 133 °C.

For orientation: melting point means the temperature of the solid-liquid transition.
